Laboratory results taken from the NIST ThermoML archive (doi:10.1016/j.jct.2014.07.018).
Numbers after ± are expanded uncertainties.

Assay: molar heat capacity at constant pressure
Conditions: 101.33 kPa, Vacuum adiabatic calorimetry

## CCCCn1cc[n+](C)c1.[I-] [1-butyl-3-methylimidazolium iodide]
168.81 K, Crystal
  molar heat capacity at constant pressure: 158.7 ± 0.7 J/K/mol
169.51 K, Crystal
  molar heat capacity at constant pressure: 159.1 ± 0.7 J/K/mol
170 K, Crystal
  molar heat capacity at constant pressure: 159.4 ± 0.7 J/K/mol
170 K, Glass
  molar heat capacity at constant pressure: 172.3 ± 0.8 J/K/mol
170.6 K, Glass
  molar heat capacity at constant pressure: 172.7 ± 0.7 J/K/mol
170.88 K, Crystal
  molar heat capacity at constant pressure: 159.9 ± 0.7 J/K/mol
171.57 K, Crystal
  molar heat capacity at constant pressure: 160.3 ± 0.7 J/K/mol
172.61 K, Glass
  molar heat capacity at constant pressure: 174 ± 0.7 J/K/mol
172.94 K, Crystal
  molar heat capacity at constant pressure: 161.1 ± 0.7 J/K/mol
173.64 K, Crystal
  molar heat capacity at constant pressure: 161.5 ± 0.7 J/K/mol
174.62 K, Glass
  molar heat capacity at constant pressure: 175.4 ± 0.8 J/K/mol
175.01 K, Crystal
  molar heat capacity at constant pressure: 162.3 ± 0.7 J/K/mol
175.71 K, Crystal
  molar heat capacity at constant pressure: 162.7 ± 0.7 J/K/mol
176.63 K, Glass
  molar heat capacity at constant pressure: 176.8 ± 0.8 J/K/mol
177.07 K, Crystal
  molar heat capacity at constant pressure: 163.5 ± 0.7 J/K/mol
177.77 K, Crystal
  molar heat capacity at constant pressure: 163.9 ± 0.7 J/K/mol
178.63 K, Glass
  molar heat capacity at constant pressure: 178.2 ± 0.8 J/K/mol
179.14 K, Crystal
  molar heat capacity at constant pressure: 164.8 ± 0.7 J/K/mol
179.83 K, Crystal
  molar heat capacity at constant pressure: 165.2 ± 0.7 J/K/mol
180 K, Crystal
  molar heat capacity at constant pressure: 165.3 ± 0.7 J/K/mol
180 K, Glass
  molar heat capacity at constant pressure: 179.1 ± 0.8 J/K/mol
180.64 K, Glass
  molar heat capacity at constant pressure: 179.6 ± 0.8 J/K/mol
181.2 K, Crystal
  molar heat capacity at constant pressure: 166.1 ± 0.7 J/K/mol
181.89 K, Crystal
  molar heat capacity at constant pressure: 166.6 ± 0.7 J/K/mol
182.64 K, Glass
  molar heat capacity at constant pressure: 181 ± 0.8 J/K/mol
183.26 K, Crystal
  molar heat capacity at constant pressure: 167.6 ± 0.7 J/K/mol
183.95 K, Crystal
  molar heat capacity at constant pressure: 168.1 ± 0.7 J/K/mol
184.64 K, Glass
  molar heat capacity at constant pressure: 182.6 ± 0.8 J/K/mol
185.31 K, Crystal
  molar heat capacity at constant pressure: 169.1 ± 0.7 J/K/mol
186 K, Crystal
  molar heat capacity at constant pressure: 169.6 ± 0.7 J/K/mol
186.65 K, Glass
  molar heat capacity at constant pressure: 184.1 ± 0.8 J/K/mol
187.36 K, Crystal
  molar heat capacity at constant pressure: 170.6 ± 0.7 J/K/mol
188.05 K, Crystal
  molar heat capacity at constant pressure: 171.1 ± 0.7 J/K/mol
188.65 K, Glass
  molar heat capacity at constant pressure: 185.7 ± 0.8 J/K/mol
189.41 K, Crystal
  molar heat capacity at constant pressure: 171.9 ± 0.7 J/K/mol
190 K, Crystal
  molar heat capacity at constant pressure: 172.3 ± 0.7 J/K/mol
190 K, Glass
  molar heat capacity at constant pressure: 186.7 ± 0.8 J/K/mol
190.1 K, Crystal
  molar heat capacity at constant pressure: 172.4 ± 0.7 J/K/mol
190.65 K, Glass
  molar heat capacity at constant pressure: 187.2 ± 0.8 J/K/mol
191.46 K, Crystal
  molar heat capacity at constant pressure: 173.3 ± 0.7 J/K/mol
192.15 K, Crystal
  molar heat capacity at constant pressure: 173.7 ± 0.7 J/K/mol
192.65 K, Glass
  molar heat capacity at constant pressure: 188.9 ± 0.8 J/K/mol
193.51 K, Crystal
  molar heat capacity at constant pressure: 174.5 ± 0.7 J/K/mol
194.2 K, Crystal
  molar heat capacity at constant pressure: 174.9 ± 0.8 J/K/mol
194.65 K, Glass
  molar heat capacity at constant pressure: 191 ± 0.8 J/K/mol
195.56 K, Crystal
  molar heat capacity at constant pressure: 175.7 ± 0.8 J/K/mol
196.24 K, Crystal
  molar heat capacity at constant pressure: 176.1 ± 0.8 J/K/mol
196.66 K, Glass
  molar heat capacity at constant pressure: 193 ± 0.8 J/K/mol
197.6 K, Crystal
  molar heat capacity at constant pressure: 176.9 ± 0.8 J/K/mol
198.29 K, Crystal
  molar heat capacity at constant pressure: 177.3 ± 0.8 J/K/mol
198.66 K, Glass
  molar heat capacity at constant pressure: 195.4 ± 0.8 J/K/mol
199.65 K, Crystal
  molar heat capacity at constant pressure: 178.1 ± 0.8 J/K/mol
200 K, Crystal
  molar heat capacity at constant pressure: 178.3 ± 0.8 J/K/mol
200 K, Glass
  molar heat capacity at constant pressure: 197.5 ± 0.8 J/K/mol
200.33 K, Crystal
  molar heat capacity at constant pressure: 178.5 ± 0.8 J/K/mol
200.66 K, Glass
  molar heat capacity at constant pressure: 198.5 ± 0.8 J/K/mol
201.69 K, Crystal
  molar heat capacity at constant pressure: 179.3 ± 0.8 J/K/mol
202.37 K, Crystal
  molar heat capacity at constant pressure: 179.8 ± 0.8 J/K/mol
202.93 K, Glass
  molar heat capacity at constant pressure: 204.1 ± 0.9 J/K/mol
203.73 K, Crystal
  molar heat capacity at constant pressure: 180.5 ± 0.8 J/K/mol
204.41 K, Crystal
  molar heat capacity at constant pressure: 180.9 ± 0.8 J/K/mol
205.45 K, Glass
  molar heat capacity at constant pressure: 214.4 ± 0.9 J/K/mol
205.77 K, Crystal
  molar heat capacity at constant pressure: 181.8 ± 0.8 J/K/mol
206.45 K, Crystal
  molar heat capacity at constant pressure: 182.2 ± 0.8 J/K/mol
207.77 K, Liquid
  molar heat capacity at constant pressure: 247.8 ± 1.1 J/K/mol
207.8 K, Crystal
  molar heat capacity at constant pressure: 183 ± 0.8 J/K/mol
208.48 K, Crystal
  molar heat capacity at constant pressure: 183.4 ± 0.8 J/K/mol
209.84 K, Crystal
  molar heat capacity at constant pressure: 184.3 ± 0.8 J/K/mol
209.86 K, Liquid
  molar heat capacity at constant pressure: 287.7 ± 1.2 J/K/mol
210 K, Crystal
  molar heat capacity at constant pressure: 184.3 ± 0.8 J/K/mol
210 K, Liquid
  molar heat capacity at constant pressure: 287.6 ± 1.2 J/K/mol
210.52 K, Crystal
  molar heat capacity at constant pressure: 184.6 ± 0.8 J/K/mol
211.87 K, Crystal
  molar heat capacity at constant pressure: 185.5 ± 0.8 J/K/mol
212.03 K, Liquid
  molar heat capacity at constant pressure: 285.8 ± 1.2 J/K/mol
212.55 K, Crystal
  molar heat capacity at constant pressure: 185.9 ± 0.8 J/K/mol
213.91 K, Crystal
  molar heat capacity at constant pressure: 186.8 ± 0.8 J/K/mol
214.19 K, Liquid
  molar heat capacity at constant pressure: 286.4 ± 1.2 J/K/mol
214.58 K, Crystal
  molar heat capacity at constant pressure: 187.2 ± 0.8 J/K/mol
215.94 K, Crystal
  molar heat capacity at constant pressure: 188.1 ± 0.8 J/K/mol
216.37 K, Liquid
  molar heat capacity at constant pressure: 286.6 ± 1.2 J/K/mol
216.61 K, Crystal
  molar heat capacity at constant pressure: 188.6 ± 0.8 J/K/mol
217.97 K, Crystal
  molar heat capacity at constant pressure: 189.5 ± 0.8 J/K/mol
218.54 K, Liquid
  molar heat capacity at constant pressure: 287.1 ± 1.2 J/K/mol
218.63 K, Crystal
  molar heat capacity at constant pressure: 190.1 ± 0.8 J/K/mol
219.99 K, Crystal
  molar heat capacity at constant pressure: 191 ± 0.8 J/K/mol
220 K, Crystal
  molar heat capacity at constant pressure: 191 ± 0.8 J/K/mol
220 K, Liquid
  molar heat capacity at constant pressure: 287.3 ± 1.2 J/K/mol
220.66 K, Crystal
  molar heat capacity at constant pressure: 191.6 ± 0.8 J/K/mol
220.72 K, Liquid
  molar heat capacity at constant pressure: 287.4 ± 1.2 J/K/mol
222.01 K, Crystal
  molar heat capacity at constant pressure: 192.5 ± 0.8 J/K/mol
222.11 K, Liquid
  molar heat capacity at constant pressure: 287.7 ± 1.2 J/K/mol
222.67 K, Crystal
  molar heat capacity at constant pressure: 193 ± 0.8 J/K/mol
222.9 K, Liquid
  molar heat capacity at constant pressure: 287.9 ± 1.2 J/K/mol
224.03 K, Crystal
  molar heat capacity at constant pressure: 194 ± 0.8 J/K/mol
224.39 K, Liquid
  molar heat capacity at constant pressure: 288.2 ± 1.2 J/K/mol
224.69 K, Crystal
  molar heat capacity at constant pressure: 194.5 ± 0.8 J/K/mol
225.09 K, Liquid
  molar heat capacity at constant pressure: 288.5 ± 1.2 J/K/mol
226.04 K, Crystal
  molar heat capacity at constant pressure: 195.5 ± 0.8 J/K/mol
226.56 K, Liquid
  molar heat capacity at constant pressure: 288.5 ± 1.2 J/K/mol
226.7 K, Crystal
  molar heat capacity at constant pressure: 196 ± 0.8 J/K/mol
226.71 K, Liquid
  molar heat capacity at constant pressure: 288.5 ± 1.2 J/K/mol
227.28 K, Liquid
  molar heat capacity at constant pressure: 288.7 ± 1.2 J/K/mol
227.61 K, Crystal
  molar heat capacity at constant pressure: 196.7 ± 0.8 J/K/mol
228.05 K, Crystal
  molar heat capacity at constant pressure: 197.1 ± 0.8 J/K/mol
228.71 K, Crystal
  molar heat capacity at constant pressure: 197.5 ± 0.8 J/K/mol
228.74 K, Liquid
  molar heat capacity at constant pressure: 289 ± 1.2 J/K/mol
228.79 K, Liquid
  molar heat capacity at constant pressure: 289 ± 1.2 J/K/mol
229.47 K, Liquid
  molar heat capacity at constant pressure: 289.3 ± 1.2 J/K/mol
229.61 K, Crystal
  molar heat capacity at constant pressure: 198.3 ± 0.8 J/K/mol
230 K, Crystal
  molar heat capacity at constant pressure: 198.5 ± 0.9 J/K/mol
230 K, Liquid
  molar heat capacity at constant pressure: 289.4 ± 1.3 J/K/mol
230.06 K, Crystal
  molar heat capacity at constant pressure: 198.5 ± 0.8 J/K/mol
230.71 K, Crystal
  molar heat capacity at constant pressure: 198.9 ± 0.8 J/K/mol
230.77 K, Liquid
  molar heat capacity at constant pressure: 289.5 ± 1.2 J/K/mol
230.93 K, Liquid
  molar heat capacity at constant pressure: 289.5 ± 1.2 J/K/mol
231.61 K, Crystal
  molar heat capacity at constant pressure: 199.7 ± 0.8 J/K/mol
231.66 K, Liquid
  molar heat capacity at constant pressure: 289.8 ± 1.2 J/K/mol
232.06 K, Crystal
  molar heat capacity at constant pressure: 200 ± 0.9 J/K/mol
232.71 K, Crystal
  molar heat capacity at constant pressure: 200.6 ± 0.9 J/K/mol
232.76 K, Liquid
  molar heat capacity at constant pressure: 289.8 ± 1.2 J/K/mol
233.11 K, Liquid
  molar heat capacity at constant pressure: 290.1 ± 1.2 J/K/mol
233.61 K, Crystal
  molar heat capacity at constant pressure: 201.3 ± 0.9 J/K/mol
233.72 K, Liquid
  molar heat capacity at constant pressure: 290.1 ± 1.2 J/K/mol
233.86 K, Liquid
  molar heat capacity at constant pressure: 290.3 ± 1.2 J/K/mol
234.06 K, Crystal
  molar heat capacity at constant pressure: 201.7 ± 0.9 J/K/mol
234.71 K, Crystal
  molar heat capacity at constant pressure: 202 ± 0.9 J/K/mol
234.74 K, Liquid
  molar heat capacity at constant pressure: 290.3 ± 1.2 J/K/mol
235.3 K, Liquid
  molar heat capacity at constant pressure: 290.6 ± 1.2 J/K/mol
235.61 K, Crystal
  molar heat capacity at constant pressure: 202.8 ± 0.9 J/K/mol
235.72 K, Liquid
  molar heat capacity at constant pressure: 290.6 ± 1.2 J/K/mol
236.05 K, Crystal
  molar heat capacity at constant pressure: 203.2 ± 0.9 J/K/mol
236.05 K, Liquid
  molar heat capacity at constant pressure: 290.9 ± 1.2 J/K/mol
236.7 K, Crystal
  molar heat capacity at constant pressure: 203.6 ± 0.9 J/K/mol
236.72 K, Liquid
  molar heat capacity at constant pressure: 290.9 ± 1.2 J/K/mol
237.48 K, Liquid
  molar heat capacity at constant pressure: 291.1 ± 1.2 J/K/mol
237.6 K, Crystal
  molar heat capacity at constant pressure: 204.3 ± 0.9 J/K/mol
237.71 K, Liquid
  molar heat capacity at constant pressure: 291.1 ± 1.2 J/K/mol
238.04 K, Crystal
  molar heat capacity at constant pressure: 204.8 ± 0.9 J/K/mol
238.25 K, Liquid
  molar heat capacity at constant pressure: 291.4 ± 1.2 J/K/mol
238.69 K, Crystal
  molar heat capacity at constant pressure: 205.3 ± 0.9 J/K/mol
238.71 K, Liquid
  molar heat capacity at constant pressure: 291.4 ± 1.2 J/K/mol
239.6 K, Crystal
  molar heat capacity at constant pressure: 205.9 ± 0.9 J/K/mol
239.67 K, Liquid
  molar heat capacity at constant pressure: 291.7 ± 1.2 J/K/mol
